According to US20180273970A1, “PLASMID, TRANSFORMED PLANT CELL AND TRANSGENIC PLANT COMPRISING THE SAME, AND METHODS FOR PREPARING A TRANSGENIC PLANT AND FOR INCREASING YIELD OF A PLANT UNDER ABIOTIC STRESSES” (Academia Sinica, priority 2014, published 2018):

What was measured:
SKIN-GFP = assay: Cellular localization of SKIN-GFP in transfected barley aleurones (confocal microscopy); type: cell-based; settings: −S medium containing ABA, 48 h
Description: (§1) FIG. 10. ABA restricts SKINs, SnRK1A and MYBS1 in the cytoplasm under sugar starvation. Barley aleurones were co-transfected with indicated plasmid constructs and incubated in +S or −S medium with ABA (+ABA) or without ABA (−ABA) for 48 h. Thirty optical sections of 0.9-1.1 μm thickness were prepared for each cell and only five regularly spaced sections (sections 3, 9, 15, 21 and 27) are shown here. C and N indicate higher GFP signals, and c and n indicate lower GFP signals in the cytoplasm and nucleus, respectively. For more section images of each cell, see also FIG. 22 online. (A) Barley aleurones were transfected with Ubi:SKIN1-GFP, Ubi:SKIN2-GFP, Ubi:SnRK1A-GFP or Ubi:MYBS1-GFP alone. (B) Barley aleurones were transfected with Ubi.MYBS1-GFP alone (panel 1) or co-transfected with Ubi.MYBS1-GFP and Ubi:SnRK1A (panel 2), or with Ubi.MYBS1-GFP and Ubi:SnRK1A(Ri) (panel 3). (C) Barley aleurones were co-transfected with Ubi:SnRK1A-GFP and Ubi:SKIN(Ri). (D) Wild type rice (WT) or transgenic rice overexpression Ubi:SKIN(Ri) were transfected with Ubi:SnRK1A-GFP (panels 1-3) or Ubi.MYBS1-GFP (panels 4-6).
Detection of cellular localization of SKIN-GFP, SnRK1A-GFP and MYBS1-GFP fusion proteins were performed as described (Hong et al., 2012). […]

SnRK1A-GFP = assay: Cellular localization of SnRK1A-GFP in transfected barley aleurones (confocal microscopy); type: cell-based; settings: 48 h; for % of total cells with SnRK1A-GFP in location [drawing 1] (nucleus) / % of total cells with SnRK1A-GFP in location [drawing 2] (cytoplasm) / Number of cells with SnRK1A-GFP in location [drawing 1] (nucleus) / Number of cells with SnRK1A-GFP in location [drawing 2] (cytoplasm): +ABA
Description: as §1
Detection of cellular localization of SKIN-GFP, SnRK1A-GFP and MYBS1-GFP fusion proteins were performed as described (Hong et al., 2012). Embryoless barley and rice seeds were sterilized with 1% NaOCl for 30 mins, and incubated in a buffer containing 20 mM CaCl2 and 20 mM sodium succinate, pH 5.0, for 4 days. Aleurone layers were isolated by scratching away starch in the endosperm with a razor blade. Four aleurone layers were arranged in a 10-cm dish for bombardment. Aleurone layers expressing GFP were examined with a Ziess confocal microscope (LSM510META) using a 488-nm laser line for excitation and a 515- to 560-nm long pass filter for emission.

SKIN1 = assay: Quantitative RT-PCR of SKIN1 mRNA in leaves of 2-week-old rice seedlings after stress or ABA; type: in vivo; settings: 24 h after 1 μM ABA
Description: FIG. 9. The expression of SKIN is induced by various abiotic stresses and ABA, and SKINs promote the ABA sensitivity. (A) Total RNA was purified from leaves of 2-week-old rice seedlings that had been air dried, treated with 200 mM salt, incubated at 4° C., or treated with 1 μM ABA, or from embryos of seedlings grown underwater (hypoxia), for various lengths of time. RNAs were subjected to quantitative RT-PCR analysis using primers specific for SKIN1 and SKIN2. The highest mRNA level was set as 100%. The lowest mRNA level was assigned a value of 1× and mRNA levels of other samples were calculated relative to this value. Error bars indicate the SE for three replicate experiments. (B) Seeds of transgenic lines SKIN1-Ox(O3), SKIN1-Ri(R3), SKIN2-Ox(02) and SKIN2-Ri(R1) were germinated and grown in water containing various concentrations of ABA at 28° C. under a 14-h light/10-h dark cycle for 6 days. Lengths of shoots were measured. Error bars represent SE (n=8) at significance levels: * p<0.1, ** p<0.05. […]
Total RNA was extracted from leaves of rice seedlings with the Trizol reagent (Invitrogen) and treated with RNase-free DNase I (Promega, Madison, Wis.). […] The quantitative variation between different samples was evaluated by the delta-delta CT method, and the amplification of 18S ribosomal RNA was used as an internal control to normalize all data.

αAmy3 SRC promoter = assay: Barley aleurone transient expression assay, SRC-35Smp:Luc reporter (luciferase); type: cell-based; settings: barley aleurones, 5 μM ABA or 400 mM sorbitol, 24 h
Description: FIG. 21. ABA and sorbitol suppress the function of SnRK1A in activation of αAmy3 SRC promoter. Rice embryos and barley aleurones were transfected with reporter SRC-35Smp:Luc with or without effectors, incubated with or without ABA for 24 h, and assayed for luciferase activity. The luciferase activity in embryos or aleurones bombarded with the SRC-35S mp-Luc construct only and in +S medium was set to 1×, and other values were calculated relative to this value. Error bars indicate the SE for three replicate experiments. (A) Plasmid constructs. (B) Barley aleurones were transfected with effector Ubi:SnRK1A, Ubi:SKIN1 or Ubi:SKIN(Ri) alone and reporter SRC-35Smp:Luc, or co-transfected with effectors Ubi:SnRK1A and Ubi:SKIN or Ubi:SKIN(Ri) and reporter SRC-35Smp:Luc. (C) Rice embryos (upper panel) were transfected with or without Ubi:SnRK1A and incubated with or without 1 μM ABA or 50 mM sorbitol, and barley aleurones (lower panel) were transfected with or without Ubi:SnRK1A and incubated with 5 μM ABA or 400 mM sorbitol.
The barley aleurone/endosperm transient expression assays were performed as described (Hong et al., 2012). Each independent experiment consisted of three replicates, with six endosperms for each treatment, and was repeated three times with similar results. Luciferase and GUS activity assays were performed as described (Hong et al., 2012). […]

rice seedlings = assay: Germination and seedling shoot growth in water containing ABA; type: in vivo; settings: ABA 1 to 10 μM, 6 days, 28° C., 14-h light/10-h dark
Description: FIG. 9. The expression of SKIN is induced by various abiotic stresses and ABA, and SKINs promote the ABA sensitivity. (A) Total RNA was purified from leaves of 2-week-old rice seedlings that had been air dried, treated with 200 mM salt, incubated at 4° C., or treated with 1 μM ABA, or from embryos of seedlings grown underwater (hypoxia), for various lengths of time. RNAs were subjected to quantitative RT-PCR analysis using primers specific for SKIN1 and SKIN2. The highest mRNA level was set as 100%. The lowest mRNA level was assigned a value of 1× and mRNA levels of other samples were calculated relative to this value. Error bars indicate the SE for three replicate experiments. (B) Seeds of transgenic lines SKIN1-Ox(O3), SKIN1-Ri(R3), SKIN2-Ox(02) and SKIN2-Ri(R1) were germinated and grown in water containing various concentrations of ABA at 28° C. under a 14-h light/10-h dark cycle for 6 days. Lengths of shoots were measured. Error bars represent SE (n=8) at significance levels: * p<0.1, ** p<0.05. For photos of treated seedlings, see also FIG. 20 online.
FIG. 20. Growth of transgenic rice overexpressing SKIN is more sensitive to ABA inhibition. Seeds of transgenic lines SKIN1-Ox(O3), SKIN1-Ri(R3), SKIN2-Ox(02) and SKIN2-Ri(R1) were germinated and grown in water containing various concentrations of ABA for 6 days at 28 C under a 14-h light/10-h dark cycle. […]

CC1=CC(=O)CC(C)(C)[C@@]1(O)/C=C/C(C)=C\C(=O)O [ABA, abscisic acid]
Localization of SKIN-GFP (SKIN-GFP): exclusively localized in the cytoplasm
% of total cells with SnRK1A-GFP in location [drawing 1] (nucleus) (SnRK1A-GFP; +S medium): 15.8%
% of total cells with SnRK1A-GFP in location [drawing 2] (cytoplasm) (SnRK1A-GFP; +S medium): 84.2%
Number of cells with SnRK1A-GFP in location [drawing 1] (nucleus) (SnRK1A-GFP; +S medium): 6
Number of cells with SnRK1A-GFP in location [drawing 2] (cytoplasm) (SnRK1A-GFP; +S medium): 32
Localization of SnRK1A-GFP (SnRK1A-GFP; −S medium containing ABA): exclusively localized in the cytoplasm
% of total cells with SnRK1A-GFP in location [drawing 1] (nucleus) (SnRK1A-GFP; −S medium): 8.0%
% of total cells with SnRK1A-GFP in location [drawing 2] (cytoplasm) (SnRK1A-GFP; −S medium): 92.0%
Number of cells with SnRK1A-GFP in location [drawing 1] (nucleus) (SnRK1A-GFP; −S medium): 7
Number of cells with SnRK1A-GFP in location [drawing 2] (cytoplasm) (SnRK1A-GFP; −S medium): 81
Induction of SKIN1 mRNA accumulation (SKIN1): ≤ 4.2 fold
Effect on αAmy3 SRC promoter (luciferase activity), alone and SnRK1A-activated (αAmy3 SRC promoter): suppressed
Degree of inhibition on growth of wild type and all transgenic lines (rice seedlings): increased with ABA concentrations from 1 to 10 μM
